Data: patent US5430018A, “Cyclohexapeptide with basic nitrogen containing alkylamide groups” (priority 1991, dated 1995)
Converted amounts (≈) assume the structure as drawn. Numbered stars: 1 amine (or outer) side, 2 acyl side, 3 side chain; on linkers, the order of the positions; unused ones are H or OH. Bridge positions count the residues as written; N and C are the ends. Square brackets hold non-standard residues; d marks the D form. Peptide text beside a SMILES is read from it. * marks the point of attachment. Tetradecanoyl(10R,12S-Me2) = CC[C@H](C)C[C@H](C)CCCCCCCCC(=O)*; Orn(4R-OH) = O=C([C@H](C[C@@H](O)CN[*:3])N[*:1])[*:2]; hTyr(3R-OH) = N[C@H](C(=O)O)[C@H](O)Cc1ccc(O)cc1; X1 = COC(=O)C[C@@H](O)[C@H](N[*:1])C(=O)[*:2]; X2 = O=C(O)C[C@@H](O)[C@H](N[*:1])C(=O)[*:2]; Pro(3S-OH) = O=C(O)[C@H]1NCC[C@@H]1O; Hyp = O=C(O)[C@@H]1C[C@@H](O)CN1

Experiments:
[1] = tested on: C. albicans MY 1055; assay type: cell-based, Candida albicans; conditions: MY 1055, 24 h
Description: The compounds of the present invention are active against many fungi and particularly against Candida species. The antifungal properties maybe illustrated with the minimum fungicidal concentration (MFC) determination against certain Candida organisms in a microbroth dilution assay carried out in a Yeast Nitrogen Base (Difco) medium with 1% dextrose (YNBD). In separate assays, the compounds (all Seq. ID No. 1) were solubilized in 10% dimethyl sulfoxide (DMSO) and diluted to 2560 μg/ml. The solution was then diluted to 256 μg/ml in YNBD and dispensed via a multichannel pipetter into the top row of a 96-well plate (each well containing 0.15 ml of YNBD), resulting in a drug concentration of 128 μg/ml. Compounds in the top row were diluted 2-fold down the columns yielding final drug concentrations ranging from 128-0.06 μg/ml. All tests were performed in duplicate. A four-hour broth culture of C. albicans MY 1055 was adjusted using a spectrophotometer at 530 nm to equal a 0.5 McFarland Standard. This yields a cell concentration of 1-5×10^6 colony forming units (CFU)/ml. The 96-well microplates were inoculated using an MIC-2000 (Dynatech), which delivers […] per well, yielding a final inoculum per well of 1.5-7.5×10^3 cells. One column per tray containing drug-free growth control wells was included. […]

[2] = tested on: C. albicans MY 1028; assay type: cell-based, Candida albicans; conditions: MY 1028, 24 h

| SMILES | MFC C. albicans MY 1055 [1] | MFC C. albicans MY 1028 [2] |
| --- | --- | --- |
| CC[C@H](C)C[C@H](C)CCCCCCCCC(=O)N[C@H]1C[C@@H](O)CNC(=O)[C@@H]2[C@@H](O)CCN2C(=O)[C@H]([C@H](O)CC(=O)O)NC(=O)[C@H]([C@H](O)Cc2ccc(O)cc2)NC(=O)[C@@H]2C[C@@H](O)CN2C(=O)[C@H]([C@@H](C)O)NC1=O [acid] ({Tetradecanoyl(10R,12S-Me2)}-[Orn(4R-OH)]T[Hyp][hTyr(3R-OH)][X2][Pro(3S-OH)]; lactam 1-C) | 0.5 µg/mL (≈ 0.483 µM) | 1 µg/mL (≈ 0.967 µM) |
| CC[C@H](C)C[C@H](C)CCCCCCCCC(=O)N[C@H]1C[C@@H](O)CNC(=O)[C@@H]2[C@@H](O)CCN2C(=O)[C@H]([C@H](O)CC(=O)OC)NC(=O)[C@H]([C@H](O)Cc2ccc(O)cc2)NC(=O)[C@@H]2C[C@@H](O)CN2C(=O)[C@H]([C@@H](C)O)NC1=O [methyl ester] ({Tetradecanoyl(10R,12S-Me2)}-[Orn(4R-OH)]T[Hyp][hTyr(3R-OH)][X1][Pro(3S-OH)]; lactam 1-C) | 0.5 µg/mL (≈ 0.477 µM) | 0.25 µg/mL (≈ 0.238 µM) |
